In publication PMC8304783, “Antiadhesive Properties of Imidazolium Ionic Liquids Based on (−)-Menthol Against Candida spp” (International Journal of Molecular Sciences, 2021):

Columns and labels:
Format in all cases: cell-based
[1] = test system: C. albicans isolates; assay: Detachment of adherent clinical isolates from polystyrene (isolates taken together); conditions: in most cases, 1, 2 and 4 times MIC90
Description: (§1) Post-adherence treatment with ILs was performed in a similar manner to that described previously by our team. Candida spp. suspensions were prepared by centrifuging YPD-grown cultures and resuspending fungal mass in PBS to an OD600 = 0.6. Sterile 96-well plates were inoculated with the prepared suspensions and incubated for 2 h at 37 °C to induce fungal adhesion. Afterwards, adherent cells were washed with PBS to remove planktonic cells and treated with ILs (concentrations equivalent to 1, 2 or 4 × MIC90 for each fungi) for 2 h at 37 °C. Then, each well was washed with PBS and adherent cells were fixed with 0.1% CV solution for 5 min, and washed with PBS. Cells were then treated with a solution of isopropanol 0.04 N HCL with 0.1% SDS to permeabilize adherent cells and release the CV dye. The absorbance of CV was measured at 590 nm (ASYS UVM 340 Biogenet). The percentage of cells that were removed was determined in comparison to adherent cells treated with PBS only (designated 100% adhesion).
(§2) The effect of imidazolium ILs based on of (1R,2S,5R)‐(−)‐menthol was evaluated on clinical, fluconazole(FLC)‐resistant and FLC‐sensitive C. albicans isolates. C. albicans Gu4 and Gu5 strains were isolated from a patient before and after fluconazole administration, respectively.
(§3) Azole‐resistance of Gu5 origins in overexpression of CDR1 and CD R2. C. albicans B3 and B4 strains […]

[2] = test system: C. albicans B3; assay: Detachment of adherent clinical isolates from polystyrene; conditions: isolate B3 on polystyrene; highest concentration (4 x MIC)
Description: as §1, §2, §3
(§4) Azole‐resistance of B4 results from overexpression of MDR1. The strains were generous gifts from Prof. S. Milewski (Gdańsk, Poland) and Prof. J. Morschhäuser (Wurzburg, Germany). They are originally referenced in: Franz, R., Ruhnke, M. & Morschhäuser, J. Molecular aspects of fluconazole resistance development in Candida albicans. Mycoses 42, 453–458, (1999).
(§5) Table S1 summarizes the minimal inhibitory and fungicidal concentration (MIC90 and MFC, respectively) values of ILs tested against the C. albicans isolates (for ILs structures see section 5.2. in the mai n text). No difference in case of MIC90 values between the strains was observed. […]

[3] = test system: C. albicans B4; assay: as above; conditions: isolate B4 on polystyrene; highest concentration (4 x MIC)
Description: as §1, §2, §3, §4, §5

[4] = test system: C. albicans Gu4; assay: as above; conditions: isolate Gu4 on polystyrene; regardless of the concentration (1, 2, 4 x MIC)
Description: as §1, §2, §3, §4, §5

SMILES	Influence on adherent properties of C. albicans isolates [1]	Reduction of adhesion [2]	Reduction of adhesion [3]	Reduction of adhesion [4]
CCCCCCCCCn1cc[n+](CO[C@@H]2C[C@H](C)CC[C@H]2C(C)C)c1 [1a, 1-[(1R,2S,5R)-(−)-menthoxymethyl]-3-nonylimidazolium chloride]	did not influence	–	–	–
CCCCCCCCCCn1cc[n+](CO[C@@H]2C[C@H](C)CC[C@H]2C(C)C)c1 [1b, 3-decyl-1-[(1R,2S,5R)-(−)-menthoxymethyl]imidazolium chloride]	–	~ 10%	~ 10%	~ 20%
